Reference: the supplement of paper PMC10307832

Tests used:
Experiment in all cases: relative viability (nuclei count vs DMSO), 5 days (fraction); higher = more cells survive
NCI-H520 = tested on: NCI-H520
Procedure, shortened: (§1)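 Lung cancer cell lines were seeded in 1536-well plates and dosed by pin tool the next day, with either a single drug or a fixed anchor-drug dose combined with five library-drug doses (not always all listed) spaced in √10 steps. Five days later, one step fixed the cells and stained their nuclei (final 0.05% Triton X-100, 1% formaldehyde, 1 ug/ml Hoechst), and nuclei were counted on 4× images. Relative viability is the nuclei count in treated wells divided by the count in vehicle wells, and each value is the median of duplicate plates.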

CAL-12T = tested on: CAL-12T
Procedure, shortened: as §1

LCLC-97TM1 = tested on: LCLC-97TM1
Procedure, shortened: as §1

BEN = tested on: BEN
Procedure, shortened: as §1

NCI-H2087 = tested on: NCI-H2087
Procedure, shortened: as §1

PC-3 [JPC-3] = tested on: PC-3 [JPC-3]
Procedure, shortened: as §1

NCI-H2023 = tested on: NCI-H2023
Procedure, shortened: as §1

HCC-15 = tested on: HCC-15
Procedure, shortened: as §1

NCI-H727 = tested on: NCI-H727
Procedure, shortened: as §1

NCI-H650 = tested on: NCI-H650
Procedure, shortened: as §1

NCI-H1915 = tested on: NCI-H1915
Procedure, shortened: as §1

LC-2-ad = tested on: LC-2-ad
Procedure, shortened: as §1

NCI-H1944 = tested on: NCI-H1944
Procedure, shortened: as §1

H3255 = tested on: H3255
Procedure, shortened: as §1

NCI-H661 = tested on: NCI-H661
Procedure, shortened: as §1

NCI-H460 = tested on: NCI-H460
Procedure, shortened: as §1

NCI-H596 = tested on: NCI-H596
Procedure, shortened: as §1

NCI-H1651 = tested on: NCI-H1651
Procedure, shortened: as §1

A-427 = tested on: A-427
Procedure, shortened: as §1

NCI-H441 = tested on: NCI-H441
Procedure, shortened: as §1

NCI-H1792 = tested on: NCI-H1792
Procedure, shortened: as §1

ABC-1 = tested on: ABC-1
Procedure, shortened: as §1

201T = tested on: 201T
Procedure, shortened: as §1

C[C@@H]1CN(CC(=O)Nc2ccc3c(c2)Cc2cccc(-c4cc(=O)cc(N5CCOCC5)o4)c2S3)C[C@H](C)O1 + C[C@]1(O)C[C@@H](c2nc(-c3ccc4ccc(-c5ccccc5)nc4c3)c3c(N)nccn32)C1 [Linsitinib] (partner 1 µM)
relative viability (NCI-H520; first compound 0.04 µM): 1.1 | relative viability (NCI-H520; first compound 0.1265 µM): 0.83 | relative viability (NCI-H520; first compound 0.4 µM): 0.748 | relative viability (NCI-H520; first compound 4 µM): 0.837 | relative viability (CAL-12T; first compound 0.04 µM): 0.893 | relative viability (CAL-12T; first compound 0.1265 µM): 0.78 | relative viability (CAL-12T; first compound 0.4 µM): 0.648 | relative viability (CAL-12T; first compound 4 µM): 0.54 | relative viability (LCLC-97TM1; first compound 0.1265 µM): 0.157 | relative viability (LCLC-97TM1; first compound 0.4 µM): 0.204 | relative viability (LCLC-97TM1; first compound 4 µM): 0.204 | relative viability (BEN; first compound 0.04 µM): 0.782 | relative viability (BEN; first compound 0.1265 µM): 0.832 | relative viability (BEN; first compound 0.4 µM): 1.1 | relative viability (BEN; first compound 4 µM): 0.86 | relative viability (NCI-H2087; first compound 0.04 µM): 0.939 | relative viability (NCI-H2087; first compound 0.1265 µM): 1 | relative viability (NCI-H2087; first compound 0.4 µM): 0.91 | relative viability (NCI-H2087; first compound 4 µM): 0.772 | relative viability (PC-3 [JPC-3]; first compound 0.04 µM): 1.06 | relative viability (PC-3 [JPC-3]; first compound 0.1265 µM): 0.993 | relative viability (PC-3 [JPC-3]; first compound 0.4 µM): 0.952 | relative viability (PC-3 [JPC-3]; first compound 4 µM): 0.868 | relative viability (NCI-H2023; first compound 0.04 µM): 0.751 | relative viability (NCI-H2023; first compound 0.1265 µM): 0.669 | relative viability (NCI-H2023; first compound 0.4 µM): 0.433 | relative viability (NCI-H2023; first compound 4 µM): 0.496 | relative viability (HCC-15; first compound 0.04 µM): 0.85 | relative viability (HCC-15; first compound 0.1265 µM): 0.809 | relative viability (HCC-15; first compound 0.4 µM): 0.878 | relative viability (HCC-15; first compound 4 µM): 0.674 | relative viability (NCI-H727; first compound 0.04 µM): 0.38 | relative viability (NCI-H727; first compound 0.1265 µM): 0.348 | relative viability (NCI-H727; first compound 0.4 µM): 0.332 | relative viability (NCI-H727; first compound 4 µM): 0.3 | relative viability (NCI-H650; first compound 0.04 µM): 0.85 | relative viability (NCI-H650; first compound 0.1265 µM): 0.729 | relative viability (NCI-H650; first compound 0.4 µM): 0.86 | relative viability (NCI-H650; first compound 4 µM): 0.584 | relative viability (NCI-H1915; first compound 0.04 µM): 1.05 | relative viability (NCI-H1915; first compound 0.1265 µM): 1.07 | relative viability (NCI-H1915; first compound 0.4 µM): 1.13 | relative viability (NCI-H1915; first compound 4 µM): 1.12 | relative viability (LC-2-ad; first compound 0.04 µM): 0.798 | relative viability (LC-2-ad; first compound 0.1265 µM): 0.895 | relative viability (LC-2-ad; first compound 0.4 µM): 0.839 | relative viability (LC-2-ad; first compound 4 µM): 0.719 | relative viability (NCI-H1944; first compound 0.1265 µM): 1.24 | relative viability (NCI-H1944; first compound 0.4 µM): 1.36 | relative viability (NCI-H1944; first compound 4 µM): 1.22 | relative viability (H3255; first compound 0.04 µM): 0.934 | relative viability (H3255; first compound 0.1265 µM): 1.04 | relative viability (H3255; first compound 0.4 µM): 0.818 | relative viability (H3255; first compound 4 µM): 0.879 | relative viability (NCI-H661; first compound 0.1265 µM): 0.556 | relative viability (NCI-H661; first compound 0.4 µM): 0.599 | relative viability (NCI-H661; first compound 4 µM): 0.506 | relative viability (NCI-H460; first compound 0.04 µM): 0.858 | relative viability (NCI-H460; first compound 0.1265 µM): 0.726 | relative viability (NCI-H460; first compound 0.4 µM): 0.682 | relative viability (NCI-H460; first compound 4 µM): 0.371 | relative viability (NCI-H596; first compound 0.04 µM): 1.12 | relative viability (NCI-H596; first compound 0.1265 µM): 1.15 | relative viability (NCI-H596; first compound 0.4 µM): 0.922 | relative viability (NCI-H596; first compound 4 µM): 1 | relative viability (NCI-H1651; first compound 0.04 µM): 1.01 | relative viability (NCI-H1651; first compound 0.1265 µM): 0.944 | relative viability (NCI-H1651; first compound 0.4 µM): 0.757 | relative viability (NCI-H1651; first compound 4 µM): 0.96 | relative viability (A-427; first compound 0.04 µM): 1.23 | relative viability (A-427; first compound 0.1265 µM): 1.14 | relative viability (A-427; first compound 0.4 µM): 1.12 | relative viability (A-427; first compound 4 µM): 1.11 | relative viability (NCI-H441; first compound 0.04 µM): 0.404 | relative viability (NCI-H441; first compound 0.1265 µM): 0.573 | relative viability (NCI-H441; first compound 0.4 µM): 0.536 | relative viability (NCI-H441; first compound 4 µM): 0.433 | relative viability (NCI-H1792; first compound 0.04 µM): 0.503 | relative viability (NCI-H1792; first compound 0.1265 µM): 0.519 | relative viability (NCI-H1792; first compound 0.4 µM): 0.564 | relative viability (NCI-H1792; first compound 4 µM): 0.425 | relative viability (ABC-1; first compound 0.1265 µM): 0.781 | relative viability (ABC-1; first compound 0.4 µM): 0.769 | relative viability (ABC-1; first compound 4 µM): 0.673 | relative viability (201T; first compound 0.04 µM): 1.09 | relative viability (201T; first compound 0.1265 µM): 1.01 | relative viability (201T; first compound 0.4 µM): 1.01 | relative viability (201T; first compound 4 µM): 1.01
